In brackets after ≈: the same amount, converted by molar mass. Residues, ends and D or L forms follow the SMILES beside them.
Columns and labels:
P. aeruginosa PAO1 GFP [1] = assay: MBIC, prevention of biofilm formation, GFP fluorescence method; assay type: cell-based, Pseudomonas aeruginosa; conditions: Table 2, BM2 medium, mean of three biological replicates
Method: (§1) Figure 1 The MIC (A), MBIC (B) and MBEC (C) values for the tritrpticin analog peptides were assessed against Pa PAO1 GFP. The MIC values were determined by measuring the absorbance of bacterial cells at 600 nm. The MBIC and MBEC values were determined by recording the fluorescence at 480 nm and 530 nm from the biofilms of GFP-expressing PAO1. Three biological replicates were run for each test sample, and the mean was calculated for the recorded absorption or fluorescence values. In the graphs, the error bars represent the standard deviation (±SD).
(§2) Figure 2 The MIC (A), MBIC (B) and MBEC (C) values for the tritrpticin-Lys derivative peptides were assessed against Pa PAO1 GFP. The MIC values were determined by measuring the absorbance of bacterial cells at 600 nm. The MBIC and MBEC values were determined by recording the fluorescence at 480 nm and 530 nm from the biofilms of GFP-expressing PAO1. Three replicates were run for each sample, the values were averaged and the error bars represent the standard deviation (±SD).
(§3) The methods to determine the MIC, MBIC and MBEC have been described in detail in our previous publication. The green fluorescent protein (GFP)-producing P. aeruginosa and S. aureus strains that were used in this work were also described in the earlier publication. Fluorescence detection was used as the main method to estimate the number of cells entrapped in the biofilm matrix. The methodology used for evaluation of the antibiofilm properties against an original Pseudomonas PA01 strain by crystal violet dye staining and the use of the Calgary biofilm device has been described elsewhere. The regular PA01 strain was provided by Dr. J. Harrison, Calgary. All measurements were carried out on an Eppendorf AF2200 plate reader. Every 96-well plate included controls for bacterial cell growth without peptide treatment and media alone. All measurements were carried out in triplicate, and the values in the figures represent the average and the error bars are standard deviation.

P. aeruginosa PAO1 [2] = assay type: cell-based, Pseudomonas aeruginosa; conditions: Table 5; PAO1, 1x BM2; biofilms on pegs, cells plated and counted; three biological replicates
Method: (§4) We note the close agreement with the MBIC and MBEC values determined by the fluorescence and CV methods, similar to what we found in our previous work for an S. aureus MRSA strain [23]. We also re-evaluated the MBEC values that are measured using the Calgary biofilm device (CBD), where biofilms form on pegs, rather than at the bottom of the 96-well plates. […] In particular, we find that the single Pro9Ala Tritrp-P9A-substituted version has better MIC, MBIC and MBEC activities than the parent peptide as well as the Tritrp-P59A analog with both prolines substituted to Ala.
Figure 5 The MBEC values for the peptides were assessed against P. aeruginosa PAO1 in the presence of 1× BM2 medium. The eradication of biofilm cells was determined for the peptides using the counting of biofilm cells formed by Pa PAO1. Three biological replicates were run for each test sample, and the mean was calculated for counted cell values. Data points with error bars indicate the standard deviation (±SD).
as §3

P. aeruginosa PAO1 GFP [3] = assay: MIC against planktonic cells, absorbance at 600 nm; assay type: cell-based, Pseudomonas aeruginosa; conditions: Table 2, BM2 medium, absorbance 600 nm, mean of three biological replicates
Method: as §1, §2, §3

S. aureus GFP [4] = assay: MBIC, GFP fluorescence method; assay type: cell-based, Staphylococcus aureus; conditions: Table 4, Sa GFP, 10% TSB and 0.1% glucose, mean of three biological replicates
Method: (§5) Figure 3 The MIC (A), MBIC (B) and MBEC (C) values for the tritrpticin analog peptides were assessed against Sa GFP. The MIC values were determined by measuring the absorbance of bacterial cells at 600 nm. The MBIC and MBEC values were determined by recording the fluorescence at 480 nm and 530 nm from the biofilms of GFP-expressing Sa. Three biological replicates were run for each test sample, and the mean was calculated for the recorded absorption or fluorescence values. In the graphs, the error bars represent the standard deviation (±SD).
as §3

P. aeruginosa PAO1 [5] = assay type: cell-based; conditions: for MBRC (CV at 595 nm) LD50: PAO1; for MBIC (CV at 595 nm) LD50 / MBIC (CV at 595 nm) LD90 / MBRC (CV at 595 nm) LD90: Table 5, PAO1, 1x BM2, crystal violet at 595 nm, mean of three biological replicates; for MBRC (CV at 595 nm) LD90: minimum biofilm reduction concentration
Method: as §4
(§6) Figure 4 The MIC (A), MBIC (B) and MBRC (C) values for the peptides were assessed against P. aeruginosa PAO1 in the presence of 1× BM2. The inhibition of planktonic cells, the inhibition of biofilm cells and the reduction in biofilm cells were determined for the peptides by recording of the planktonic cells at 600 nm and quantification of biofilms formed by Pa PAO1 using crystal violet at 595 nm, respectively. Three biological replicates were run for each test sample, and the mean was calculated for the recorded absorption values. Data points with error bars indicate the standard deviation (±SD).
(§7) Figure 6 The MIC (A), MBIC (B) and MBEC (C) values for the tritrpticin-Lys derivatives against P. aeruginosa PAO1 were assessed by the crystal violet (CV) assay for the measurement of inhibition of biofilm formation and eradication of biofilm cells, respectively. The biofilm cells were rinsed, stained with 0.1% crystal violet for 15 min and then rinsed again. The CV was released from biofilm cells by the addition of 95% ethanol and quantified by reading on a spectrometer at 595 nm. Three replicates were run for each sample, the values were averaged and the error bars represent the standard deviation (±SD).
as §3

P. aeruginosa PAO1 [6] = assay type: cell-based, Pseudomonas aeruginosa; conditions: Table 5; regular PAO1 (no GFP), 1x BM2; absorbance 600 nm; mean of three biological replicates
Method: as §6, §7, §3

P. aeruginosa PAO1 GFP [7] = assay: MBEC, biofilm eradication, GFP fluorescence method; assay type: cell-based, Pseudomonas aeruginosa; conditions: Table 2, BM2 medium, mean of three biological replicates
Method: as §1, §2, §3

S. aureus GFP [8] = assay type: cell-based, Staphylococcus aureus; conditions: Table 4; Sa GFP; lowest concentration of peptide with no bacterial growth seen on the spot agar plate
Source text: as §3

S. aureus GFP [9] = assay: MBEC, GFP fluorescence method; assay type: cell-based, Staphylococcus aureus; conditions: Table 4, Sa GFP, 10% TSB and 0.1% glucose, mean of three biological replicates
Method: as §5, §3

S. aureus GFP [10] = assay: MIC against planktonic cells, absorbance at 600 nm; assay type: cell-based, Staphylococcus aureus; conditions: Table 4; Sa GFP, 10% TSB and 0.1% glucose; absorbance 600 nm; mean of three biological replicates
Method: as §5, §3

SMILES | MBIC at 488 and 530 nm LD50 (P. aeruginosa PAO1 GFP [1]) [µmol/L] | MBIC at 488 and 530 nm LD90 (P. aeruginosa PAO1 GFP [1]) [µmol/L] | MBEC from Calgary Biofilm Device (CBD) LD50 (P. aeruginosa PAO1 [2]) [µmol/L] | MBEC from Calgary Biofilm Device (CBD) LD90 (P. aeruginosa PAO1 [2]) [µmol/L] | MIC at 600 nm LD50 (P. aeruginosa PAO1 GFP [3]) [µmol/L] | MIC at 600 nm LD90 (P. aeruginosa PAO1 GFP [3]) [µmol/L] | MBIC at 488 and 530 nm LD50 (S. aureus GFP [4]) [µmol/L] | MBIC at 488 and 530 nm LD90 (S. aureus GFP [4]) [µmol/L] | MBRC (CV at 595 nm) LD50 (P. aeruginosa PAO1 [5]) [µmol/L] | MBIC (CV at 595 nm) LD50 (P. aeruginosa PAO1 [5]) [µmol/L] | MBIC (CV at 595 nm) LD90 (P. aeruginosa PAO1 [5]) [µmol/L] | MBRC (CV at 595 nm) LD90 (P. aeruginosa PAO1 [5]) [µmol/L] | MIC at 600 nm LD50 (P. aeruginosa PAO1 [6]) [µmol/L] | MIC at 600 nm LD90 (P. aeruginosa PAO1 [6]) [µmol/L] | MBEC at 488 and 530 nm LD50 (P. aeruginosa PAO1 GFP [7]) [µmol/L] | MBEC at 488 and 530 nm LD90 (P. aeruginosa PAO1 GFP [7]) [µmol/L] | MBC Agar Plate (S. aureus GFP [8]) [µmol/L] | MBEC at 488 and 530 nm LD50 (S. aureus GFP [9]) [µmol/L] | MBEC at 488 and 530 nm LD90 (S. aureus GFP [9]) [µmol/L] | MIC at 600 nm LD50 (S. aureus GFP [10]) [µmol/L] | also measured
CC(C)C[C@H](NC(=O)[C@H](Cc1ccccc1)NC(=O)[C@@H]1CCCN1C(=O)[C@H](Cc1c[nH]c2ccccc12)NC(=O)[C@H](Cc1c[nH]c2ccccc12)NC(=O)[C@H](Cc1c[nH]c2ccccc12)NC(=O)[C@@H]1CCCN1C(=O)[C@H](Cc1ccccc1)NC(=O)[C@H](CCCCN)NC(=O)[C@H](CCCCN)NC(=O)[C@@H](N)C(C)C)C(=O)N[C@@H](CCCCN)C(=O)N[C@@H](CCCCN)C(N)=O [Tritrp-Lys] (H-VKKFPWWWPFLKK-NH2) | 16 | 32 | 128 | 128 | 32 (≈ 57.3 µg/mL) | 32 (≈ 57.3 µg/mL) | 2 | 2 | 64 | 32 | 32 | 64 | 32 (≈ 57.3 µg/mL) | 32 (≈ 57.3 µg/mL) | 64 | 64 | 4 (≈ 7.16 µg/mL) | 1 | 2 | 1 (≈ 1.79 µg/mL) | MIC at 600 nm LD90 (S. aureus GFP [10]): 2 µmol/L (≈ 3.58 µg/mL)
CC(C)C[C@H](NC(=O)[C@H](Cc1ccccc1)NC(=O)[C@@H]1CCCN1C(=O)[C@H](Cc1c[nH]c2ccccc12)NC(=O)[C@H](Cc1c[nH]c2ccccc12)NC(=O)[C@H](Cc1c[nH]c2ccccc12)NC(=O)[C@H](C)NC(=O)[C@H](Cc1ccccc1)NC(=O)[C@H](CCCNC(=N)N)NC(=O)[C@H](CCCNC(=N)N)NC(=O)[C@@H](N)C(C)C)C(=O)N[C@@H](CCCNC(=N)N)C(=O)N[C@@H](CCCNC(=N)N)C(N)=O [Tritrp-P5A] (H-VRRFAWWWPFLRR-NH2) | 4 | 8 | 32 | 128 | 4 (≈ 7.5 µg/mL) | 8 (≈ 15 µg/mL) | 1 | 4 | 32 | 8 | 8 | 32 | 4 (≈ 7.5 µg/mL) | 8 (≈ 15 µg/mL) | 64 | 64 | 4 (≈ 7.5 µg/mL) | 2 | 4 | 1 (≈ 1.88 µg/mL) | MIC at 600 nm LD90 (S. aureus GFP [10]): 2 µmol/L (≈ 3.75 µg/mL)
CC(C)C[C@H](NC(=O)[C@H](Cc1ccccc1)NC(=O)[C@H](C)NC(=O)[C@H](Cc1c[nH]c2ccccc12)NC(=O)[C@H](Cc1c[nH]c2ccccc12)NC(=O)[C@H](Cc1c[nH]c2ccccc12)NC(=O)[C@@H]1CCCN1C(=O)[C@H](Cc1ccccc1)NC(=O)[C@H](CCCCN)NC(=O)[C@H](CCCCN)NC(=O)[C@@H](N)C(C)C)C(=O)N[C@@H](CCCCN)C(=O)N[C@@H](CCCCN)C(N)=O [Tritrp-P9A-Lys] (H-VKKFPWWWAFLKK-NH2) | 8 | 8 | 64 | 64 | 4 (≈ 7.05 µg/mL) | 8 (≈ 14.1 µg/mL) | 2 | 4 | 32 | 8 | 16 | 64 | 4 (≈ 7.05 µg/mL) | 8 (≈ 14.1 µg/mL) | 4 | 64 | 8 (≈ 14.1 µg/mL) | 1 | 8 | 1 (≈ 1.76 µg/mL) | MIC at 600 nm LD90 (S. aureus GFP [10]): 4 µmol/L (≈ 7.05 µg/mL)

Source: paper PMC11858513, “Antibiofilm Activities of Tritrpticin Analogs Against Pathogenic Pseudomonas aeruginosa PA01 Strains” (Molecules, 2025)
